Here are results for twelve molecules from patent US8513233B2, “Pyrimidinyl-propionic acid derivatives and their use as PPAR agonists” (Shanghai Institute of Materia Medica, CAS, priority 2007, dated 2013).

The subject of series [1] is ADPKD cyst-lining epithelia. The note with it: dose-dependent and time-dependent; cited from earlier work.
The test system of series [2] is human renal epithelial cells (HKC). To be noted: cited from earlier work.
In another series the test system is MCF-7. Kind of series: Growth inhibition, modified MTT assay, MCF-7. It counts as cell-based. The note with it: Homo sapiens, MCF7; MCF-7, MTT, mean of 3 independent tests. The essentials: (§1)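 Cells seeded 24 h in 10% FCS medium, switched to serum-free medium for 24 h, then exposed to graded compound concentrations in triplicate. Viability read by MTT (4 h), formazan dissolved in DMSO, OD at 492 nm; IC50 from sigmoidal fit, mean of 3 independent tests.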

A further series has as its system T24. Briefly: Growth inhibition, modified MTT assay, T24. Type of series: cell-based. The note with it: Homo sapiens, T-24, mean of 3 independent tests. The essentials:
as §1
In general terms: Tetrazolium assays rely on reduction of a dye to a coloured formazan, in cell work by metabolically active cells.

A further series concerns SPC-A1. Briefly: Growth inhibition, modified MTT assay, SPC-A1. It counts as cell-based. The note with it: SPCA1, mean of 3 independent tests. The essentials:
as §1

A further series addresses T1, PPAR-γ (Homo sapiens, UniProt P37231).
T1 construct: expressed in transfected cells; host or cells: U2OS cells, transiently transfected with pcDNA3.1 expression vectors (FuGene6)
T1 sequence (P37231 1-505): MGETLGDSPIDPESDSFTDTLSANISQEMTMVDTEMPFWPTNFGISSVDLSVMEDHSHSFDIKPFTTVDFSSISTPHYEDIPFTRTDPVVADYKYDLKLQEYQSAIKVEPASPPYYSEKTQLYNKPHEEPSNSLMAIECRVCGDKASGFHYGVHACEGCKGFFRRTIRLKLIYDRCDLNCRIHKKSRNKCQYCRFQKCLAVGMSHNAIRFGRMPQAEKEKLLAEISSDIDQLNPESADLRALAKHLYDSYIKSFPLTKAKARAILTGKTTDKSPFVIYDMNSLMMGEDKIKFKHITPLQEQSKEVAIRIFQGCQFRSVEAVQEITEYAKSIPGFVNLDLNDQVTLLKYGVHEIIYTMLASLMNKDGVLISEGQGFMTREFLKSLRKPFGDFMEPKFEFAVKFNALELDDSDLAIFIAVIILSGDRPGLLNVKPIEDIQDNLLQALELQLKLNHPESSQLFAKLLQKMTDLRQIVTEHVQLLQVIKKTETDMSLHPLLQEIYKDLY
T1 sequence (P19793 1-462 partner): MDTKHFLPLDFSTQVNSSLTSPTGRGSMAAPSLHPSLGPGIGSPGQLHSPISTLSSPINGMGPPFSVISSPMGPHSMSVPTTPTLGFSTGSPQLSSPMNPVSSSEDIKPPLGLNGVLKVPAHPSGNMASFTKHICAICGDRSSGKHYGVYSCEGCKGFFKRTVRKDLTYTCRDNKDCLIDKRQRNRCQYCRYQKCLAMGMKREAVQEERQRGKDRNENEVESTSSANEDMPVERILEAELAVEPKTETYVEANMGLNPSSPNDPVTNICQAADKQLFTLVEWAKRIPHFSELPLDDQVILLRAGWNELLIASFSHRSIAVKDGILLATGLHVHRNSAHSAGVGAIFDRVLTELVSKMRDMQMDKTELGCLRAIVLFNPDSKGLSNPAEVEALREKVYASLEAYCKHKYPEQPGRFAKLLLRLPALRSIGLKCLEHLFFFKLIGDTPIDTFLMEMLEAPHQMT
Kind of series: Transient transfection and transcription assay (luciferase reporter, U2OS cells). The note with it: 24 h treatment. It counts as cell-based. In general terms: A reporter such as luciferase makes a cellular process visible.

Another series has as its system HepG2. Briefly: Growth inhibition, modified MTT assay, HepG2. Type of series: cell-based. To be noted: Homo sapiens, mean of 3 independent tests. The essentials: as §1
In series [3] the test system is Han:SPRD rats, animal model of ADPKD. Briefly: Administration of rosiglitazone on the Han:SPRD rats (earlier study). Type of series: in vivo, rat. The note with it: when they died, chronic high dose.

`CCCCC/C=C/C=C1/C(=O)C=C[C@@H]1C/C=C\CCCC(=O)O` [Compound 15d-PGJ2, 15d-PGJ2]: in series [1], the “apoptosis of ADPKD cyst-lining epithelia” value is “induce apoptosis” and the “proliferation of ADPKD cyst-lining epithelia” value was “inhibit the proliferation”. The “effect on human renal epithelial cells (HKC)” value in [2] was “relatively weak”.
In the case of `CC(Cc1ccc(Oc2cc(N3CCN(Cc4ccccc4)CC3)ncn2)cc1)(Oc1ccccc1)C(=O)O` (centres unmarked) [Compound 28, 3-{4-[6-(4-benzyl-piperazin-1-yl)-pyrimidin-4-yloxy]-phenyl}-2-methyl-2-phenoxy-propionic acid], the melting point (commonly the temperature of the solid-liquid transition) lay in the range of 107 to 109 °C. In addition, half-maximal inhibition with MCF-7 (IC50) was put at 14.6 µM. Besides, in the series with T24, the IC50 (usually the concentration at which inhibition is half-maximal) amounted to 19.6 µM. Moreover, the IC50 in the series on SPC-A1 is 28.6 µM. The EC50 – broadly, the midpoint of the concentration-response curve – at PPAR-γ turned out to be 4.68 µM. The 50% inhibitory concentration (IC50) in the series with HepG2 worked out at 29.3 µM.
The molecule `CC(Cc1ccc(Oc2cc(N3CCN(Cc4ccccc4)CC3)nc(Oc3ccccc3)n2)cc1)(Oc1ccccc1)C(=O)O` (centres unmarked) [Compound 43, 3-{4-[6-(4-Benzyl-piperazin-1-yl)-2-phenoxy-pyrimidin-4-yloxy]-phenyl}-2-methyl-2-phenoxy-propionic acid] came in with a melting point of 126 to 128 °C. The molecule further returned an IC50 with MCF-7 of 33.5 µM. Also, in the series on T24, the IC50 is more than 50 µM. Further, in the series with SPC-A1, the IC50 turned out to be 32.5 µM. In addition, a half-maximal response at PPAR-γ (EC50) required 1.62 µM. The IC50 in the series with HepG2 was more than 50 µM.
As for `CC(Cc1ccc(Oc2cc(Oc3ccccc3)nc(N3CCN(Cc4ccccc4)CC3)n2)cc1)(Oc1ccccc1)C(=O)O` (centres unmarked) [Compound 44, 3-{4-[2-(4-Benzyl-piperazin-1-yl)-6-phenoxy-pyrimidin-4-yloxy]-phenyl}-2-methyl-2-phenoxy-propionic acid], the melting point was 135 to 137 °C. Moreover, in the series with MCF-7, the IC50 is 15.4 µM. The IC50 in the series on T24 worked out at 11.1 µM. This molecule also yielded an IC50 in the series on SPC-A1 of 14.1 µM. Besides, at PPAR-γ, a half-maximal response (EC50) required 4.68 µM. The IC50 in the series with HepG2 amounted to 35.2 µM.
For `CC(Cc1ccc(Oc2cc(N3CCN(Cc4ccccc4)CC3)nc(NCc3ccccc3)n2)cc1)(Oc1ccccc1)C(=O)O` (centres unmarked) [Compound 47, 3-{4-[2-Benzylamino-6-(4-benzyl-piperazin-1-yl)-pyrimidin-4-yloxy]-phenyl}-2-methyl-2-phenoxy-propionic acid], the melting point fell in the range of 104 to 106 °C. In addition, in the series with MCF-7, the midpoint of inhibition, the IC50, lay at 22.8 µM. In the series on T24, this molecule registered an IC50 of more than 50 µM. In addition, inhibition with SPC-A1 was half-maximal at 31.5 µM (IC50). In addition, a half-maximal effect at PPAR-γ (EC50) was put at 6.31 µM. For the same molecule, the IC50 in the series on HepG2 is more than 50 µM.
In turn, `CN(C)c1nc(Oc2ccc(CC(C)(Oc3ccccc3)C(=O)O)cc2)cc(N2CCN(Cc3ccccc3)CC2)n1` (centres unmarked) [Compound 49, 3-{4-[6-(4-Benzyl-piperazin-1-yl)-2-dimethylamino-pyrimidin-4-yloxy]-phenyl}-2-methyl-2-phenoxy-propionic acid] yielded a melting point of 136 to 138 °C. In the series with MCF-7, the IC50 was more than 50 µM. This molecule also returned an IC50 in the series with T24 of more than 50 µM. The IC50 in the series on SPC-A1 is more than 50 µM. Besides, the EC50 on PPAR-γ was 2.95 µM. The same molecule displayed an IC50 in the series on HepG2 of more than 50 µM.
`CCNc1nc(Oc2ccc(CC(C)(Oc3ccccc3)C(=O)O)cc2)cc(N2CCN(Cc3ccccc3)CC2)n1` (centres unmarked) [Compound 50, 3-{4-[6-(4-Benzyl-piperazin-1-yl)-2-ethylamino-pyrimidin-4-yloxy]-phenyl}-2-methyl-2-phenoxy-propionic acid]: the melting point lay in the range of 106 to 107 °C. In the series with MCF-7, the IC50 amounted to 33.7 µM. This molecule yielded an IC50 in the series with T24 of more than 50 µM. In addition, half-maximal inhibition in the series with SPC-A1 (IC50) required 46.6 µM. At PPAR-γ, the EC50 turned out to be 6.03 µM. Moreover, the IC50 with HepG2 is more than 50 µM.
In turn, `CCN(CC)c1nc(Oc2ccc(CC(C)(Oc3ccccc3)C(=O)O)cc2)cc(N2CCN(Cc3ccccc3)CC2)n1` (centres unmarked) [Compound 51, 3-{4-[6-(4-Benzyl-piperazin-1-yl)-2-diethylamino-pyrimidin-4-yloxy]-phenyl}-2-methyl-2-phenoxy-propionic acid] came in with a melting point of 120 to 121 °C. Further, the IC50 with MCF-7 worked out at 27.6 µM. Besides, half-maximal inhibition with T24 (IC50) required 21.9 µM. In addition, in the series on SPC-A1, the IC50 turned out to be 36.6 µM. The molecule further registered an EC50 at PPAR-γ of 7.08 µM. Besides, the IC50 in the series with HepG2 amounted to 37.5 µM.
As to `CC(Cc1ccc(Oc2cc(N3CCN(Cc4ccccc4)CC3)nc(N3CCCCC3)n2)cc1)(Oc1ccccc1)C(=O)O` (centres unmarked) [Compound 52, 3-{4-[6-(4-Benzyl-piperazin-1-yl)-2-piperidin-1-yl-pyrimidin-4-yloxy]-phenyl}-2-methyl-2-phenoxy-propionic acid], the melting point is 125 to 126 °C. Moreover, the IC50 with MCF-7 is 17.6 µM. This molecule registered an IC50 with T24 of 12.4 µM. In the series with SPC-A1, this molecule came in with an IC50 of 7.8 µM. At PPAR-γ, this molecule came in with an EC50 of 4.68 µM. The IC50 in the series on HepG2 was determined as 17.9 µM.
`CC(Cc1ccc(Oc2cc(N3CCN(Cc4ccccc4)CC3)nc(N3CCOCC3)n2)cc1)(Oc1ccccc1)C(=O)O` (centres unmarked) [Compound 53, 3-{4-[6-(4-Benzyl-piperazin-1-yl)-2-morpholin-4-yl-pyrimidin-4-yloxy]-phenyl}-2-methyl-2-phenoxy-propionic acid] showed a melting point of 127 to 129 °C. The molecule further gave an IC50 with MCF-7 of 12.5 µM. In the series on T24, the midpoint of inhibition, the IC50, lay at 15.8 µM. The molecule also yielded an IC50 with SPC-A1 of 22.4 µM. The molecule also yielded an EC50 at PPAR-γ of 3.98 µM. The molecule also returned an IC50 with HepG2 of 22.2 µM.
Take `CC(Cc1ccc(Oc2cc(N3CCN(Cc4ccccc4)CC3)nc(N3CCCC3)n2)cc1)(Oc1ccccc1)C(=O)O` (centres unmarked) [Compound 54, 3-{4-[6-(4-Benzyl-piperazin-1-yl)-2-pyrrolidin-1-yl-pyrimidin-4-yloxy]-phenyl}-2-methyl-2-phenoxy-propionic acid]: the melting point fell in the range of 126 to 127 °C. The same molecule displayed an IC50 in the series with MCF-7 of more than 50 µM. This molecule registered an IC50 in the series with T24 of more than 50 µM. The IC50 in the series with SPC-A1 is more than 50 µM. It took 3.8 µM to reach a half-maximal effect at PPAR-γ (EC50). For the same molecule, the IC50 in the series with HepG2 was more than 50 µM.
For the molecule `CN(CCOc1ccc(CC2SC(=O)NC2=O)cc1)c1ccccn1` (centres unmarked) [Rosiglitazone, reference compound], the IC50 with MCF-7 stood at 45.6 µM; in the series on T24, 69 µM; with SPC-A1, 59.8 µM; with HepG2, 80.2 µM. In [3], the “heart and liver weight” value was “heart and liver weight gain”.
